± gives the standard deviation of the averaged measurements.
Legend:
[1] = compound: CCC1=C[C@@H]2CN(C1)Cc1c([nH]c3ccccc13)[C@@](C(=O)OC)(c1cc3c(cc1OC)N(C)[C@H]1[C@@](O)(C(=O)OC)[C@H](OC(C)=O)[C@]4(CC)C=CCN5CC[C@]31[C@@H]54)C2 [VINORELBINE]; test: surviving fraction relative to DMSO-only wells; higher = less growth inhibition; details: exposure time: 5 days
Method in brief: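 Tumour cell lines in log phase were plated in 384-well plates at 250–500 cells per well, then, after 24 hours, exposed continuously for five days to inhibitors at 0.5, 1, 5, 10, 50, 100, 500 and 1000 nM. Viability came from CellTiter-Glo luminescence, and surviving fraction is that signal normalised to the median of DMSO-only wells. Plates were read after 10 minutes at room temperature, and each line, screened three times, was kept only when replicate Pearson r was >0.7 and median Z' was >0.3.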

[2] = compound: CO[C@H]1C[C@@H]2CC[C@@H](C)[C@@](O)(O2)C(=O)C(=O)N2CCCC[C@H]2C(=O)O[C@H]([C@H](C)C[C@@H]2CC[C@@H](OCCO)[C@H](OC)C2)CC(=O)[C@H](C)/C=C(\C)[C@@H](O)[C@@H](OC)C(=O)[C@H](C)C[C@H](C)/C=C/C=C/C=C/1C [EVEROLIMUS]; test: area under dose-response curve of surviving fraction (unscaled, Aref=0) (surviving fraction x log10(nM)); higher = more resistant; details: exposure time: 5 days; dose range 0.5-1000 nM
Method in brief: (§1)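 Tumour cell lines in 384-well plates were exposed to eight inhibitor concentrations, from 0.5 to 1000 nM, for five days, and viability was read by CellTiter-Glo luminescence in three screens per line. Signals were normalised to DMSO-only wells, and 3-parameter logistic regression in the drc R package fitted dose-response survival curves to the surviving fractions. Area under the curve is given as the unscaled activity area. That area is taken over log10 dose with Aref = 0.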

[3] = compound: COc1cc(CCc2cc(NC(=O)c3ccc(N4CC(C)NC(C)C4)cc3)n[nH]2)cc(OC)c1 [AZD4547]; test: as above; details: exposure time: 5 days; dose range 0.5-1000 nM
Method in brief: as §1

[4] = compound: COc1cc([C@@H]2c3cc4c(cc3[C@@H](O[C@@H]3O[C@@H]5CO[C@@H](C)O[C@H]5[C@H](O)[C@H]3O)[C@H]3COC(=O)[C@H]23)OCO4)cc(OC)c1O [ETOPOSIDE]; test: as above; details: exposure time: 5 days; dose range 0.5-1000 nM
Method in brief: as §1

[5] = compound: NC1(c2ccc(-c3nc4ccn5c(=O)[nH]nc5c4cc3-c3ccccc3)cc2)CCC1 [MK2206]; test: as above; details: exposure time: 5 days; dose range 0.5-1000 nM
Method in brief: as §1

[6] = compound: O=C(O)CC[C@H]1CC[C@@](c2cc(F)ccc2F)(S(=O)(=O)c2ccc(Cl)cc2)CC1 [MK0752]; test: as above; details: exposure time: 5 days; dose range 0.5-1000 nM
Method in brief: as §1

[7] = compound: CCCS(=O)(=O)Nc1ccc(F)c(C(=O)c2c[nH]c3ncc(Cl)cc23)c1F [PLX-4720]; test: as above; details: exposure time: 5 days; dose range 0.5-1000 nM
Method in brief: as §1

[8] = compound: CCN(CC)CCNC(=O)c1c(C)[nH]c(/C=C2\C(=O)Nc3ccc(F)cc32)c1C [SUNITINIB]; test: as above; details: exposure time: 5 days; dose range 0.5-1000 nM
Method in brief: as §1

Test System | surviving fraction ([1]; 0.5 nM) | surviving fraction ([1]; 1 nM) | surviving fraction ([1]; 5 nM) | surviving fraction ([1]; 10 nM) | surviving fraction ([1]; 50 nM) | surviving fraction ([1]; 100 nM) | surviving fraction ([1]; 500 nM) | surviving fraction ([1]; 1000 nM) | area under dose-response curve [2] | area under dose-response curve [3] | area under dose-response curve [4] | area under dose-response curve [5] | area under dose-response curve [6] | area under dose-response curve [7] | area under dose-response curve [8]
C33A CERVIX | 1.02 ± 0.15 | 1.02 ± 0.1 | 1.03 ± 0.11 | 0.78 ± 0.04 | 0.121 ± 0.0098 | 0.102 ± 0.028 | 0.0543 ± 0.026 | 0.0423 ± 0.0078 | 1.43 | 3.03 | 2.61 | 3.12 | 3.7 | – | –
CAL72 BONE | 1.04 ± 0.036 | 1.05 ± 0.036 | 1 ± 0.024 | 0.9417 ± 0.0083 | 0.43 ± 0.056 | 0.34 ± 0.05 | 0.213 ± 0.018 | 0.213 ± 0.026 | 2.27 | 1.94 | 3.1 | 3.66 | 3.63 | 3.44 | –
G292 BONE | 0.962 ± 0.012 | 1.01 ± 0.045 | 0.704 ± 0.0075 | 0.416 ± 0.013 | 0.221 ± 0.02 | 0.189 ± 0.0081 | 0.144 ± 0.013 | 0.105 ± 0.011 | 1.68 | 1.58 | 2.76 | 2.96 | 3.19 | 3.19 | 2.82
HUO3N1 BONE | 1.01 ± 0.032 | 1.02 ± 0.012 | 1.03 ± 0.039 | 0.935 ± 0.017 | 0.308 ± 0.039 | 0.182 ± 0.025 | 0.183 ± 0.0055 | 0.179 ± 0.018 | 2.1 | 2.9 | 2.97 | 2.94 | – | 3.12 | 2.62
LNCAP PROSTATE | 0.816 ± 0.12 | 0.843 ± 0.12 | 0.667 ± 0.038 | 0.458 ± 0.056 | 0.06 ± 0.0053 | 0.054 ± 0.0044 | 0.058 ± 0.001 | 0.0507 ± 0.0083 | 1.21 | 2.84 | 2.68 | 2.02 | 3.22 | 3.17 | –
SCC003 HEADNECK | 1.02 ± 0.16 | 1.08 ± 0.067 | 0.967 ± 0.13 | 0.862 ± 0.064 | 0.271 ± 0.039 | 0.256 ± 0.02 | 0.34 ± 0.045 | 0.311 ± 0.036 | – | – | – | – | – | 2.97 | 2.83
